Tests used:
[1] = organism: Homo sapiens; test: Inhibition of uricase (unknown origin) using uric acid as substrate at 112.5 mg/L preincubated with compounds for 15 mins followed by uric acid addition
[2] = tested on: Rattus norvegicus; test: (§1) Anti-hyperuricemic activity against potassium oxonate-induced hyperuricemic Sprague-Dawley rat model assessed as urinary creatinine level at 1 mg/kg, po pre-administered via gavage twice daily for 5 times followed by potassium oxonate injection for 1 hrs prior to last dose and measured after 3 hrs; assay type: functional; details: time 123 hrs
[3] = tested on: Rattus norvegicus; test: as §1, with “as excretion of urate per volume of glomerular filtration measured per body surface area of 0.0311 m2” for “as urinary creatinine level”, “at 4” for “at 1”; assay type: functional; details: time 123 hrs

COc1c(O)cc2oc3cc(O)c(CC=C(C)C)c(O)c3c(=O)c2c1CC=C(C)C [MANGOSTIN]
inhibition [1]: 6.3% | Activity [2]: 0.9 mmol/L | Activity [3]: 5.3 µmol/L

Reference: ChEMBL document CHEMBL5226379, “Hypouricemic Actions of the Pericarp of Mangosteen in Vitro and in Vivo” (J Nat Prod, 2023)
